# Measurements published in patent publication US20080242681A1, “N-4-(6-(Hetero)Aryl-Pyrimidin-4-Ylaminophenyl)-Benzenesulfonamides as Kinase Inhibitors” (Altana Pharma AG, priority 2004, published 2008).
# Structures can show the parent of a compound that is named as a salt.
# What was measured:
# Assay type in all cases: biochemical
# [1] = target: T1, PKCε (Homo sapiens, UniProt Q02156); test: Protein Kinase C ε assay (SPA); settings: human recombinant PKCε, PKCη pseudosubstrate, read-out: IC50, inhibition of PKC ε
# T1 construct: purchased Panvera
# T1 sequence (Q02156 1-737): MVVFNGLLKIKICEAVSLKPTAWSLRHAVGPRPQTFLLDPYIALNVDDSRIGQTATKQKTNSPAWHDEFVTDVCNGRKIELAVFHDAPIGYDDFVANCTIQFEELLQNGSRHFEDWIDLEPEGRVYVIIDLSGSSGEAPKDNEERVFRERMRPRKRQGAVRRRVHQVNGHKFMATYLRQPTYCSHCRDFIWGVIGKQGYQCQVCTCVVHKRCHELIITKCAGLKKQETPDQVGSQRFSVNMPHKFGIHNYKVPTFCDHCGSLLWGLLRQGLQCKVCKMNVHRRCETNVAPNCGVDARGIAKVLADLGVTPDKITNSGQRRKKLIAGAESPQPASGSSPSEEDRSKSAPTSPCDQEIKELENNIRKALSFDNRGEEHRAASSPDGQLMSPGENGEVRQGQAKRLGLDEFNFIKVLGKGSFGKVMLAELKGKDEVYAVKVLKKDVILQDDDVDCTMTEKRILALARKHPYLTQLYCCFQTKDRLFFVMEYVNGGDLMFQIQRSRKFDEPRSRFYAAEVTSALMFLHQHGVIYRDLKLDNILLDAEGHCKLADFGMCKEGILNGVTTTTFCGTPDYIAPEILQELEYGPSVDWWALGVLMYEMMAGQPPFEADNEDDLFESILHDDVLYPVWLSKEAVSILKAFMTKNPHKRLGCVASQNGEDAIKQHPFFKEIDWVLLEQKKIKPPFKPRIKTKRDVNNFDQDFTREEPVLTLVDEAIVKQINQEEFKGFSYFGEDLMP
# Protocol: (§1) The compounds of formula 1 are tested for their activity on different protein kinases and PKC isoforms using a scintillation proximity assay (SPA, Amersham International plc). ^33P-labeled peptides are captured onto streptavidin coated yttrium silicate SPA beads. β-particles, emitted from the captured ^33P-labeled substrate in close proximity to the bead are able to excite the scintillant, resulting in the generation of quantifiable light. The assay is performed in a 96-well polystyrene microtiterplate (1450-514, Isoplates, Wallac, Turku, Finland). The reaction mixture (50 μl) contains 10 μl of the test compound together with 10 μl of the relevant kinase, diluted in the relevant dilution buffer, 5 μl of 10 μM phorbol myristate acetate (PMA) in H2O, 5 μl of 1.6 mM phosphatidylserine (Sigma-Aldrich Chemie GmbH, Stein-heim, Germany) in 20 mM Tris/HCL buffer pH 7.4, 5 μl of 0.3% BSA in H2O, 5 μl of 30 μM relevant substrate and 10 μl of 5 μM ATP and 0.1 μCi of ^33P-ATP (Amersham, Freiburg, Germany) in 200 mM Tris/HCL pH 7.5 and 200 mM MgCl2. Incubation is performed for 40 min at room temperature (RT) without shaking. Reaction is stopped by adding 150 μl of cold stop solution containing 10 mM ATP, 5 mM EGTA pH 7.5, 0.1% Triton X-100 and 0.2 mg streptavidin coated yttrium silicate SPA beads (Amersham, RPNQ 0012). The sealed plate is incubated for 60 min at RT. Thereafter the MTP is counted in a Microbeta Jet (Wallac). IC50 measurement is performed on a routine basis by incubation a serial dilution of inhibitor at concentrations ranging between 0.01 and 100 μM according to the method described above. Background values are the signals of the reaction mixture without addition of the relevant kinase and are subtracted from all values. 100% values are the signals of the reaction mixture without addition of inhibitors.
# (§2) Dependent on the efficacy of the inhibitors In the various test systems, corresponding IC50 values are calculated from concentration-inhibition curves by nonlinear regression analysis using the program GraphPad Prism (GraphPad Software Inc., San Diego, Calif.).
# (§3) Human recombinant PKCε was obtained from Panvera and is used under the assay conditions as described above (Section A.1). The enzyme is diluted in PKC dilution buffer containing 1 mM Hepes pH 7.4, 0.5 mM DTT and 0.001% Triton X-100. The kinase reaction is performed with the biotinylated PKCη pseudosubstrate solved in H2O.
# [2] = target: T2, PKCα (Homo sapiens, UniProt P17252); test: Protein Kinase Cα assay (SPA); settings: human recombinant PKCα, biotinylated PKCα pseudosubstrate, 0.5 mM CaCl2, read-out: IC50, inhibition of PKCα
# T2 construct: purchased Panvera (Invitrogen GmbH, Karlsruhe, Germany)
# Protocol: as §1, §2
# (§4) Human recombinant PKCα was obtained from Panvera (Invitrogen GmbH, Karlsruhe, Germany) and is used under the assay conditions as described above (Section A.1). The enzyme is diluted in PKC dilution buffer containing 1 mM Hepes pH 7.4, 0.5 mM DTT and 0.001% Triton X-100. The assay additionally contains 0.5 mM CaCl2. The kinase reaction is performed with the biotinylated PKCα pseudosubstrate solved in H2O.
# [3] = target: T3, PKCθ (Homo sapiens, UniProt Q04759); test: Protein Kinase C θ assay (SPA); settings: human recombinant PKCθ from Sf21 insect cells, read-out: IC50, inhibition of PKC θ
# T3 construct: made in house; host or cells: Sf21 insect cells
# Protocol: as §1, §2
# as §3, with “nickel bead purified PKCθ” for “PKCε was obtained”, “Sf21 insect cells” for “Panvera and”, “PKCθ” for “PKCη”, “H2O. The examples 8, 22, 46, 115, 118 and 161 inhibit PKC 9 in this assay with an IC50<1 μM.” for “H2O.”
# [4] = target: T4, PKCβ1 (Homo sapiens, UniProt P05771); test: Protein Kinase Cβ1 assay (SPA); settings: human recombinant PKCβ1, SPA, biotinylated PKCα pseudosubstrate, 0.5 mM CaCl2; read-out: IC50, inhibition of PKC β1
# T4 construct: purchased Panvera
# Protocol: as §1, §2
# as §4, with “recombinant PKCβ1” for “recombinant PKCα”, “Panvera” for “Panvera (Invitrogen GmbH, Karlsruhe, Germany)”, “H2O. The examples 29, 45, 52, 128 and 139 inhibit PKC β1 in this assay with an IC50 between 2 and 40 μM.” for “H2O.”
# [5] = target: T5, PKCη (Homo sapiens, UniProt P24723); test: Protein Kinase C η assay (SPA); settings: human recombinant PKCη from Sf21 insect cells, read-out: IC50, inhibition of PKC η
# T5 construct: made in house; host or cells: Sf21 insect cells
# Protocol: as §1, §2
# as §3, with “nickel bead purified PKCη” for “PKCε was obtained”, “Sf21 insect cells” for “Panvera and”, “H2O. The examples 52, 55, 118 and 135 inhibit PKC η in this assay with an IC50 between 6 and 50 μM.” for “H2O.”
# T4 sequence (P05771 whole entry): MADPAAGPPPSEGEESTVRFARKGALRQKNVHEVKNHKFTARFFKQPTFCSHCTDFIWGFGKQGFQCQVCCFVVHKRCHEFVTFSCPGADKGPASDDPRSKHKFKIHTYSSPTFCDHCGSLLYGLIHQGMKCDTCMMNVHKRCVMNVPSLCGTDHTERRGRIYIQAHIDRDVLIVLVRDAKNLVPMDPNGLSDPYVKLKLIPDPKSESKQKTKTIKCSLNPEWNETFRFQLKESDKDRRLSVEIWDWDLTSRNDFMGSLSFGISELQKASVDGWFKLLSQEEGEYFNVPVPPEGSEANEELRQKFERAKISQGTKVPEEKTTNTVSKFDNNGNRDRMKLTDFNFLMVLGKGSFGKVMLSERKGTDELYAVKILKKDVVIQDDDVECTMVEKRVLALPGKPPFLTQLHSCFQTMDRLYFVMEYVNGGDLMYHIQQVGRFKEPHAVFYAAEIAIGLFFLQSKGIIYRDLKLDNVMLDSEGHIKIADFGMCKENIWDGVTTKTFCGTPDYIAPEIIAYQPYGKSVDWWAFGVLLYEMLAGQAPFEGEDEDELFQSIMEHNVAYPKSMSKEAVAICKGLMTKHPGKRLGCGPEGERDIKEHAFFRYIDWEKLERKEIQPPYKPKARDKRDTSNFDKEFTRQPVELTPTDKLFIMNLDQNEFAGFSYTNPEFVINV
# T3 sequence (Q04759 whole entry): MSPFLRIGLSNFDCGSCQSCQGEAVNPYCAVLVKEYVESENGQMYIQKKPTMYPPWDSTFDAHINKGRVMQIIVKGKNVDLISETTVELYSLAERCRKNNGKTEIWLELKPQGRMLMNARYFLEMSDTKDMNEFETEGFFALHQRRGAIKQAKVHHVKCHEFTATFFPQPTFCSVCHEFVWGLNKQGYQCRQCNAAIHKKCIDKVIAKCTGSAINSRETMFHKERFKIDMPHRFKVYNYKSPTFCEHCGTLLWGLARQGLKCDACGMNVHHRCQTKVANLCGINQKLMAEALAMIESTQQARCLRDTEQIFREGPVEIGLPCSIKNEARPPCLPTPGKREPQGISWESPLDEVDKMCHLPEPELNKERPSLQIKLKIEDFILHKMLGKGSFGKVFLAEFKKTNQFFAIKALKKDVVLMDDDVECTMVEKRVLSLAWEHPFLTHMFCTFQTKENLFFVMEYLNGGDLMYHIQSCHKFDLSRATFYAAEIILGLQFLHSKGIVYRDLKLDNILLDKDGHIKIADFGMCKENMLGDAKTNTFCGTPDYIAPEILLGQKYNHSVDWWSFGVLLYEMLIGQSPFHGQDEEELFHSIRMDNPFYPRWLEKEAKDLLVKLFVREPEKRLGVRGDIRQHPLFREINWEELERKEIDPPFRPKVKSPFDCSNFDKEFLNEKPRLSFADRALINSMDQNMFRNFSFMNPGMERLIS
# T5 sequence (P24723 whole entry): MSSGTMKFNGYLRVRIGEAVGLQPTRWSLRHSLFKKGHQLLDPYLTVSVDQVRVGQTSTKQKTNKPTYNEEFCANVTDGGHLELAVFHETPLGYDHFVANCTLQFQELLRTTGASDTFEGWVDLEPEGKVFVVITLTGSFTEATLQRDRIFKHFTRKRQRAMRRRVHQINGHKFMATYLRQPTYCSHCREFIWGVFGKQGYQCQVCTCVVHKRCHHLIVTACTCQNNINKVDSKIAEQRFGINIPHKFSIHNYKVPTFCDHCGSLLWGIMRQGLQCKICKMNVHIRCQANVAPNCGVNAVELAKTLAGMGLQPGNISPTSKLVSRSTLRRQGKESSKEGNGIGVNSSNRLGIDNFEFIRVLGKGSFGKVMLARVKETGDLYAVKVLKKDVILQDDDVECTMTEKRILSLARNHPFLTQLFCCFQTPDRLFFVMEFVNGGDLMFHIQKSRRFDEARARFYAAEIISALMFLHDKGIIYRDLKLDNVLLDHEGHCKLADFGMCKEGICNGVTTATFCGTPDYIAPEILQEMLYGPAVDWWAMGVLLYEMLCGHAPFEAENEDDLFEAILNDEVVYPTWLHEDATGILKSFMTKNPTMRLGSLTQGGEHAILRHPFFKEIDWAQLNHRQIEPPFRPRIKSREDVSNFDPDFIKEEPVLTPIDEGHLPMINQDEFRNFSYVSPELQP
smiles,measurement,setting,value
"CC(=O)c1ccc(-c2cc(Nc3ccc(NS(=O)(=O)c4c(F)cccc4F)cc3)ncn2)cc1 [Example 27, N-{4-[6-(4-Acetyl-phenyl)-pyrimidin-4-ylamino]-phenyl}-2,6-difluoro-benzenesulfonamide]",IC50,[1],4 to 21 µM
"O=S(=O)(Nc1ccc(Nc2cc(-c3ccc(OCCN4CCOCC4)cc3)ncn2)cc1)c1c(F)cccc1F [Example 37, 2,6-Difluoro-N-(4-{6-[4-(2-morpholin-4-yl-ethoxy)-phenyl]-pyrimidin-4-ylamino}-phenyl)-benzenesulfonamide]",IC50,[2],1 to 18 µM
"CC1Cc2cc(-c3cc(Nc4ccc(NS(=O)(=O)c5c(F)cccc5F)cc4)ncn3)ccc2O1 (stereo not shown) [Example 115, 2,6-Difluoro-N-{4-[6-(2-methyl-2,3-dihydro-benzofuran-5-yl)-pyrimidin-4-ylamino]-phenyl}-benzenesulfonamide]",IC50,[3],< 1 µM
"COc1ccc(-c2cc(Nc3ccc(NS(=O)(=O)c4ccccc4F)cc3)ncn2)cc1 [Example 29, 2-Fluoro-N-{4-[6-(4-methoxy-phenyl)-pyrimidin-4-ylamino]-phenyl}-benzenesulfonamide]",IC50,[4],2 to 40 µM
"O=S(=O)(Nc1ccc(Nc2cc(-c3ccc4[nH]ccc4c3)ncn2)cc1)c1c(F)cccc1F [Example 119, 2,6-Difluoro-N-{4-[6-(1H-indol-5-yl)-pyrimidin-4-ylamino]-phenyl}-benzenesulfonamide]",IC50,[2],1 to 18 µM
"CN1CCN(CCOc2ccc(-c3cc(Nc4ccc(NS(=O)(=O)c5c(F)cccc5F)cc4)ncn3)cc2)CC1 [Example 47, 2,6-Difluoro-N-[4-(6-{4-[2-(4-methyl-piperazin-1-yl)-ethoxy]-phenyl}-pyrimidin-4-ylamino)-phenyl]-benzenesulfonamide]",IC50,[1],4 to 21 µM
"O=S(=O)(Nc1ccc(Nc2cc(-c3ccccc3)ncn2)cc1)c1c(F)cccc1F [Example 8, 2,6-Difluoro-N-[4-(6-phenyl-pyrimidin-4-ylamino)-phenyl]-benzenesulfonamide]",IC50,[3],< 1 µM
"Cc1ccc(S(=O)(=O)Nc2ccc(Nc3cc(-c4ccc(OCCCN5CCN(C)CC5)cc4)ncn3)cc2)cc1 [Example 55, 4-Methyl-N-[4-(6-{4-[3-(4-methyl-piperazin-1-yl)-propoxy]-phenyl}-pyrimidin-4-ylamino)-phenyl]-benzenesulfonamide]",IC50,[5],6 to 50 µM
"CN1CCN(CCn2ccc3cc(-c4cc(Nc5ccc(NS(=O)(=O)c6ccc(F)cc6F)cc5)ncn4)ccc32)CC1 [Example 150, 2,4-Difluoro-N-[4-(6-{1-[2-(4-methyl-piperazin-1-yl)-ethyl]-1H-indol-5-yl}-pyrimidin-4-ylamino)-phenyl]-benzenesulfonamide formic acid salt]",IC50,[2],1 to 18 µM
"O=S(=O)(Nc1ccc(Nc2cc(-c3ccc(OCCCN4CCOCC4)cc3)ncn2)cc1)c1c(F)cccc1F [Example 38, 2,6-Difluoro-N-(4-{6-[4-(3-morpholin-4-yl-propoxy)-phenyl]-pyrimidin-4-ylamino}-phenyl)-benzenesulfonamide]",IC50,[1],4 to 21 µM
"O=S(=O)(Nc1ccc(Nc2cc(-c3ccc4c(ccn4CCN4CCCC4)c3)ncn2)cc1)c1ccc(F)c(Cl)c1 [Example 161, 3-Chloro-4-fluoro-N-(4-{6-[1-(2-pyrrolidin-1-yl-ethyl)-1H-indol-5-yl]pyrimidin-4-ylamino}-phenyl)-benzenesulfonamide formic acid salt]",IC50,[3],< 1 µM
"COc1ccc(S(=O)(=O)Nc2ccc(Nc3cc(-c4cccc(OCCCN5CCOCC5)c4)ncn3)cc2)cc1 [Example 46, 4-Methoxy-N-(4-{6-[3-(3-morpholin-4-yl-propoxy)-phenyl]-pyrimidin-4-ylamino}-phenyl)-benzenesulfonamide]",IC50,[3],< 1 µM
"COc1ccc(S(=O)(=O)Nc2ccc(Nc3cc(-c4ccc(OCCN5CCN(C)CC5)cc4)ncn3)cc2)cc1 [Example 52, 4-Methoxy-N-[4-(6-{4-[2-(4-methyl-piperazin-1-yl)-ethoxy]-phenyl}-pyrimidin-4-ylamino)-phenyl]-benzenesulfonamide]",IC50,[4],2 to 40 µM
same,IC50,[5],6 to 50 µM
"O=S(=O)(Nc1ccc(Nc2cc(-c3ccc4[nH]ccc4c3)ncn2)cc1)c1ccccc1F [Example 120, 2-Fluoro-N-{4-[6-(1H-indol-5-yl)-pyrimidin-4-ylamino]-phenyl}-benzenesulfonamide]",IC50,[2],1 to 18 µM
"Cc1ccc(S(=O)(=O)Nc2ccc(Nc3cc(-c4ccc5c(ccn5CCCN(C)C)c4)ncn3)cc2)cc1 [Example 135, N-(4-{6-[1-(3-Dimethylamino-propyl)-1H-indol-5-yl]-pyrimidin-4-ylamino}-phenyl)-4-methyl-benzenesulfonamide]",IC50,[5],6 to 50 µM
"CN(C)CCn1ccc2cc(-c3cc(Nc4ccc(NS(=O)(=O)c5c(F)cccc5F)cc4)ncn3)ccc21 [Example 139, N-(4-{6-[1-(2-Dimethylamino-ethyl)-1H-indol-5-yl]-pyrimidin-4-ylamino}-phenyl)-2,6-difluoro-benzenesulfonamide]",IC50,[4],2 to 40 µM
"COc1ccc(S(=O)(=O)Nc2ccc(Nc3cc(-c4ccc(OCCCN5CCOCC5)cc4)ncn3)cc2)cc1 [Example 45, 4-Methoxy-N-(4-{6-[4-(3-morpholin-4-yl-propoxy)-phenyl]-pyrimidin-4-ylamino}-phenyl)-benzenesulfonamide]",IC50,[4],2 to 40 µM
"O=S(=O)(Nc1ccc(Nc2cc(-c3cccc4ccccc34)ncn2)cc1)c1c(F)cccc1F [Example 16, 2,6-Difluoro-N-[4-(6-naphthalen-1-yl-pyrimidin-4-ylamino)-phenyl]-benzenesulfonamide]",IC50,[2],1 to 18 µM
